Several values for one entry are separate records, joined by “and”; a condition that tells them apart may be missing. Equal values may be shown once. Inconclusive results and toxic doses are left out. How the source made its calls: active means survival T/C of 150% or more; inactive means T/C below 125% in these data.
System: BDF1 mice, P388 leukemia ip, median survival T/C
Assay: NCI In Vivo Anticancer Drug Screen. Data for tumor model P388 Leukemia (intraperitoneal) in B6D2F1 (BDF1) mice
Conditions: endpoint: median survival time, higher = longer survival
Method in brief: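 Read-out is survival of treated animals expressed relative to the vehicle group, as a T/C ratio.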

[1] = dose: 25.0 mg/kg/injection, schedule: Q01DX009 (ip), vehicle: saline with Tween-80
[2] = dose: 50.0 mg/kg/injection, schedule: Q01DX009 (ip), vehicle: saline with Tween-80
[3] = dose: 100.0 mg/kg/injection, schedule: Q01DX009 (ip), vehicle: saline with Tween-80
[4] = dose: 25.0 mg/kg/injection, schedule: Q01DX009 (ip), vehicle: saline
[5] = dose: 50.0 mg/kg/injection, schedule: Q01DX009 (ip), vehicle: saline
[6] = dose: 100.0 mg/kg/injection, schedule: Q01DX009 (ip), vehicle: saline
[7] = dose: 200.0 mg/kg/injection, schedule: Q01DX009 (ip), vehicle: saline
[8] = dose: 100.0 mg/kg/injection, schedule: Q04DX003 (ip), vehicle: saline
[9] = dose: 100.0 mg/kg/injection, schedule: Q04DX003 (ip), vehicle: Klucel (hydroxypropylcellulose) (HPC)
[10] = dose: 200.0 mg/kg/injection, schedule: Q04DX003 (ip), vehicle: Klucel (hydroxypropylcellulose) (HPC)

Measured: T/C

NC(=S)c1ncc(N)s1
inactive: [1] 89 % of control | [2] 98 % of control | [3] 106 % of control

Nc1ccn(C2OC(CO)C(O)C2O)c(=O)c1 (configuration not stated)
inactive: [4] 93 % of control | [5] 95 % of control | [6] 112 % of control | [7] 102 % of control

Nc1ccc2cc(Cl)ccc2c1
inactive: [3] 90 % of control

c1ccc(C2CCCCCC2)cc1
inactive: [6] 110 % of control | [8] 100 % of control | dose: 166.0 mg/kg/injection, schedule: Q01DX009 (ip), vehicle: saline 110 % of control | [7] 105 % of control | dose: 200.0 mg/kg/injection, schedule: Q04DX003 (ip), vehicle: saline 90 % of control | dose: 400.0 mg/kg/injection, schedule: Q04DX003 (ip), vehicle: saline 100 % of control

O=C1CC=Nc2ccc([N+](=O)[O-])cc21
inactive: [9] 100 % of control | [10] 90 % of control | dose: 400.0 mg/kg/injection, schedule: Q04DX003 (ip), vehicle: Klucel (hydroxypropylcellulose) (HPC) 95 % of control

C[N+](C)(C)Cc1ccccc1C[N+](C)(C)C
inactive: [4] 116 % of control | [5] 112 % of control | [6] 112 % of control

CC1(C)N=C(N)N=C(N)N1c1ccc(CNC(=O)Nc2cccc(S(=O)(=O)F)c2)cc1
inactive: dose: 35.0 mg/kg/injection, schedule: Q04DX003 (ip), vehicle: saline 104 % of control
active: dose: 50.0 mg/kg/injection, schedule: Q04DX003 (ip), vehicle: saline 150 % of control | dose: 75.0 mg/kg/injection, schedule: Q04DX003 (ip), vehicle: saline 163 % of control | dose: 99.0 mg/kg/injection, schedule: Q04DX003 (ip), vehicle: saline 200 % of control | dose: 150.0 mg/kg/injection, schedule: Q04DX003 (ip), vehicle: saline 159 % of control and 195 % of control and 215 % of control | dose: 225.0 mg/kg/injection, schedule: Q04DX003 (ip), vehicle: saline 225 % of control and 163 % of control | dose: 300.0 mg/kg/injection, schedule: Q04DX003 (ip), vehicle: saline 177 % of control

COc1cc(OC)c(C(=O)CCc2ccccc2)c(O)c1Cc1ccccc1O
inactive: dose: 0.5 mg/kg/injection, schedule: Q01DX009 (ip), vehicle: saline 106 % of control | dose: 2.0 mg/kg/injection, schedule: Q01DX009 (ip), vehicle: saline 113 % of control | dose: 4.0 mg/kg/injection, schedule: Q01DX009 (ip), vehicle: saline with Tween-80 120 % of control | dose: 4.0 mg/kg/injection, schedule: Q01DX009 (ip), vehicle: saline 103 % of control | dose: 5.9 mg/kg/injection, schedule: Q01DX009 (ip), vehicle: saline with Tween-80 103 % of control | dose: 13.0 mg/kg/injection, schedule: Q01DX009 (ip), vehicle: saline with Tween-80 103 % of control

CN1CCN(c2nc3cccnc3s2)CC1
inactive: [8] 93 % of control

O=[N+]([O-])/C=C/c1ccc(O)cc1
inactive: dose: 6.25 mg/kg/injection, schedule: Q01DX009 (ip), vehicle: saline with Tween-80 100 % of control | dose: 12.5 mg/kg/injection, schedule: Q01DX009 (ip), vehicle: saline with Tween-80 102 % of control | [1] 110 % of control | [2] 107 % of control

Cn1c2nc3ccccc3c-2nc2ccccc21
inactive: dose: 12.5 mg/kg/injection, schedule: Q04DX003 (ip), vehicle: Klucel (hydroxypropylcellulose) (HPC) 94 % of control | dose: 25.0 mg/kg/injection, schedule: Q04DX003 (ip), vehicle: Klucel (hydroxypropylcellulose) (HPC) 98 % of control | dose: 50.0 mg/kg/injection, schedule: Q04DX003 (ip), vehicle: Klucel (hydroxypropylcellulose) (HPC) 103 % of control | [9] 101 % of control | [10] 116 % of control

CN(C)C(=O)Nc1ccc(Cc2ccc(NC(=O)N(C)C)cc2)cc1
inactive: [2] 96 % of control | [3] 99 % of control | dose: 200.0 mg/kg/injection, schedule: Q01DX009 (ip), vehicle: saline with Tween-80 108 % of control | dose: 400.0 mg/kg/injection, schedule: Q01DX009 (ip), vehicle: saline with Tween-80 99 % of control
